Experiment [1] has as its target Mitochondrial respiratory complex II (Mus musculus, UniProt Q8K2B3+Q9CQA3+Q9CXV1+Q9CZB0). Kind of experiment: Complex II inhibition assay. The format is biochemical. Conditions: for inhibition at 100 µM: read-out: % Inhibition CII (100 μM), 100 μM; for inhibition at 100 µM / % Inhibition CII (100 μM): mouse liver mitochondria, mean ±SD of n = 4.
Experiment [2] concerns 22Rv1 prostate cancer cells. Description: MTS cytotoxicity assay in 22Rv1 prostate cancer cells. Conditions: 100 μM, 48 hr treatment, MTS. In kind it is cell-based. (In general: Tetrazolium assays rely on reduction of a dye to a coloured formazan, in cell work by metabolically active cells.)
Experiment [3] has as its system TNBC MDA-MB-468 cells. Description: MTS cytotoxicity assay in MDA-MB-468 cells. Conditions: for SI (Selectivity Index): MDA-MB-468 over HEK293 cells; for IC50: read-out: MDA-MB-468 IC50, 72 hours, mean ±SD of n=3. The format is cell-based.
Experiment [4] deals with low tumorigenic human endothelial kidney (HEK293) cells. Description: MTS cytotoxicity assay in HEK293 cells. Conditions: read-out: HEK293 IC50. In kind it is cell-based.

31 molecules from paper PMC8035258 (ChemMedChem, 2021) can be followed below.

Where two headings read alike, the source gives them in different places.

In general, inhibition refers to the drop in the measured response relative to a control, in per cent. The IC50 is the concentration that inhibits the measured activity by half.

Sequence of Mitochondrial respiratory complex II (Q8K2B3 43-664): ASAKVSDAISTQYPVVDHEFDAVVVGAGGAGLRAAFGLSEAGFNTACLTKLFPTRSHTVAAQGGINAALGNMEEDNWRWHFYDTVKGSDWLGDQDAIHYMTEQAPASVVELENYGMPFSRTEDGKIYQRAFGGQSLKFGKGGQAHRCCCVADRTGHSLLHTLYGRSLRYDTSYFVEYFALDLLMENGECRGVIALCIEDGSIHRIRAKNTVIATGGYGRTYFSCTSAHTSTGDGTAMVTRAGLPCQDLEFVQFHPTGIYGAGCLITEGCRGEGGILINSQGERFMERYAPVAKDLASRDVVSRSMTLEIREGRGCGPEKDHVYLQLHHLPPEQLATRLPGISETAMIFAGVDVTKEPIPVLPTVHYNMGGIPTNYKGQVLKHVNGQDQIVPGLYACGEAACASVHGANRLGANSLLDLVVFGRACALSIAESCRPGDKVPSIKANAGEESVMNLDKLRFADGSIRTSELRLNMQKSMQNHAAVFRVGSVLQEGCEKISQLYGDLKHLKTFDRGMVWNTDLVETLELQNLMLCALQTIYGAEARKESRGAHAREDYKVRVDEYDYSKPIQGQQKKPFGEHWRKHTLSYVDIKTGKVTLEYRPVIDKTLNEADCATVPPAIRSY
Sequence of Mitochondrial respiratory complex II (Q9CQA3 31-282): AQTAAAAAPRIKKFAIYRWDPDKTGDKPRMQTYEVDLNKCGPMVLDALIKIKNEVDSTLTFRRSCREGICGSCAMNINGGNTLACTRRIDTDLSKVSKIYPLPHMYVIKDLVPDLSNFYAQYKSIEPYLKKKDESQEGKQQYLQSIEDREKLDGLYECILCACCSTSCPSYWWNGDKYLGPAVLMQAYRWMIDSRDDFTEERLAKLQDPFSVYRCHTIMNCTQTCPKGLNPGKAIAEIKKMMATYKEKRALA
Sequence of Mitochondrial respiratory complex II (Q9CZB0 30-169): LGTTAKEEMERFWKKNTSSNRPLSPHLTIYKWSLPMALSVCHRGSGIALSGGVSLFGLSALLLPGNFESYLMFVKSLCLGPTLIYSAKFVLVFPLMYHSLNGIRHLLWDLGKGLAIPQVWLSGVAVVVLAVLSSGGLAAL
Sequence of Mitochondrial respiratory complex II (Q9CXV1 57-159): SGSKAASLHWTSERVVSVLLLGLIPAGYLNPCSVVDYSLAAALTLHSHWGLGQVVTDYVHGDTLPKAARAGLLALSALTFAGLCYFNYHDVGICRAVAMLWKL

Consider `CC(NC1=NS(=O)(=O)c2ccccc2N1)c1ccccc1` (centres unmarked) [Compound 24d, 3-((1-Phenylethyl)amino)-4H-benzo[e][1,2,4]thiadiazine 1,1-dioxide], for which, in experiment [1], the inhibition at 100 µM was 0%. Further, in experiment [2], the “reduction of 22Rv1 cell viability” value is on record as “approximately 30%”. Further, the “SI (Selectivity Index)” value in experiment [3] was 3.92. The half-inhibitory concentration (IC50) in experiment [4] (Homo sapiens, HEK293, 72 h) came to 48.6 ± 1.7 µM.
For `CC(NC1=NS(=O)(=O)c2ccc(Cl)cc2N1)c1ccccc1` (centres unmarked) [Compound 24b, 6-Chloro-3-((1-phenylethyl)amino)-4H-benzo[e][1,2,4]thiadiazine 1,1-dioxide], the IC50 in experiment [1] came to 89 ± 10.4 µM; in experiment [4] (Homo sapiens, HEK293, 72 h) it was 118 ± 22.3 µM. Further, the inhibition at 100 µM in experiment [1] amounted to 51 ± 13.9%. Further, in experiment [2], the “reduction of 22Rv1 cell viability” value is recorded as 50%. Also, the “SI (Selectivity Index)” value in experiment [3] is reported as 2.72.
As to `O=S1(=O)N=C(NCc2ccc(C(F)(F)F)cc2)Nc2cc(Cl)ccc21` [Compound 25b, 6-Chloro-3-((4-(trifluoromethyl)benzyl)amino)-4Hbenzo[e][1,2,4]thia-d iazine 1,1-dioxide], the “% Inhibition CII (100 μM)” value in experiment [1] was found to be 19 ±10.1%. Further, the IC50 in experiment [3] worked out at 25.1 ± 3.8 µM.
For `O=S1(=O)N=C(NCc2ccc(Cl)cc2)Nc2cc(Cl)ccc21` [Compound 16b, 6-Chloro-3-((4-chlorobenzyl)amino)-4H-benzo[e][1,2,4]thiadiazine 1,1-dioxide], the “reduction of 22Rv1 cell viability” value in experiment [2] is listed as 10%.
`CC(NC1=NS(=O)(=O)c2cc(F)ccc2N1)c1ccccc1` (centres unmarked) [Compound 24a, 7-Fluoro-3-((1-phenylethyl)amino)-4H-benzo[e][1,2,4]thiadiazine 1,1-dioxide]: the inhibition at 100 µM in experiment [1] worked out at 22 ± 9.9%. The “reduction of 22Rv1 cell viability” value in experiment [2] was found to be 34%. In addition, in experiment [3], the “SI (Selectivity Index)” value turned out to be 10.2. The IC50 in experiment [4] (Homo sapiens, HEK293, 72 h) is 42.6 ± 5.9 µM.
With `O=S1(=O)N=C(NC2CCCC2)Nc2cc(Cl)ccc21` [Compound 22b, 6-Chloro-3-(cyclopentylamino)-4H-benzo[e][1,2,4]thiadiazine 1,1-dioxide], the “reduction of 22Rv1 cell viability” value in experiment [2] is 34%.
Regarding `COc1ccc(CNC2=NS(=O)(=O)c3cc(Br)ccc3N2)cc1` [Compound 20c, 7-Bromo-3-((4-methoxybenzyl)amino)-4H-benzo[e][1,2,4]thiadiazine 1,1-dioxide], in experiment [1], the IC50 is 79.7 ± 4 µM and the inhibition at 100 µM amounted to 64 ± 15.3%. Also, the “reduction of 22Rv1 cell viability” value in experiment [2] was 41%. Besides, the “SI (Selectivity Index)” value in experiment [3] turned out to be 3.23. In addition, the concentration for half-maximal inhibition (IC50) in experiment [4] (Homo sapiens, HEK293, 72 h) is 88 ± 12.3 µM.
For the molecule `O=S1(=O)N=C(NCCCc2ccccc2)Nc2ccc(F)cc21` [Compound 23a, 7-Fluoro-3-((3-phenylpropyl)amino)-4H-benzo[e][1,2,4]thiadiazine 1,1-dioxide], the inhibition at 100 µM in experiment [1] was determined as 14 ± 10.4%. In addition, in experiment [3], the “SI (Selectivity Index)” value is given as 3.12. Also, the IC50 in experiment [4] (Homo sapiens, HEK293, 72 h) stood at 181 ± 7.3 µM.
For the molecule `O=S1(=O)NC(=S)Nc2cc(Cl)ccc21` [Compound 12b, 6-Chloro-3-thioxo-3,4-dihydro-2H-1,2,4-benzothiadiazine 1,1-dioxide], in experiment [1], the 50% inhibitory concentration (IC50) was 11.9 ± 3.3 µM and the inhibition at 100 µM turned out to be 81 ± 6.9%. Moreover, in experiment [2], the “reduction of 22Rv1 cell viability” value turned out to be 12%.
For the molecule `COc1ccccc1CNC1=NS(=O)(=O)c2cc(F)ccc2N1` [Compound 26a, 7-Fluoro-3-((2-methoxybenzyl)amino)-4H-benzo[e][1,2,4]thiadiazine 1,1-dioxide], in experiment [1], the inhibition at 100 µM turned out to be 27 ± 5.6%. For the same molecule, the “SI (Selectivity Index)” value in experiment [3] was determined as 3.03. The concentration for half-maximal inhibition (IC50) in experiment [4] (Homo sapiens, HEK293, 72 h) was determined as 47.6 ± 2 µM.
The matching figures for `O=S1(=O)N=C(NCCc2c[nH]c3ccccc23)Nc2cc(Cl)ccc21` [Compound 36b, 3-((2-(1H-indol-3-yl)ethyl)amino)-6-chloro-4H-benzo[e][1,2,4]thiadiazine 1,1-dioxide]: 25 ± 19%, 2.66 and 41.3 ± 5.2 µM.
`O=c1[nH]cc(F)c(=O)[nH]1` [5-Fluorouracil, reference compound]: the entries for the “SI (Selectivity Index)” value in experiment [3] and in experiment [3] (listed as 5-fluorouracil) were 1.03 and 1, respectively. Further, the half-inhibitory concentration (IC50) in experiment [4] (Homo sapiens, HEK293, 72 h) is 7.06 ± 0.8 µM.
Regarding `O=S1(=O)N=C(NCCc2ccccc2)Nc2ccc(Br)cc21` [Compound 18c, 7-Bromo-3-(phenethylamino)-4H-benzo[e][1,2,4]thiadiazine 1,1-dioxide], the inhibition at 100 µM in experiment [1] was 37 ± 4.7%. For the same molecule, in experiment [3], the “SI (Selectivity Index)” value was determined as 3.4. Also, the concentration for half-maximal inhibition (IC50) in experiment [4] (Homo sapiens, HEK293, 72 h) was found to be 63.1 ± 1.8 µM.
As to `O=S1(=O)N=C(NCc2ccc(Cl)cc2)Nc2ccc(Br)cc21` [Compound 16c, 7-Bromo-3-((4-chlorobenzyl)amino)-4H-benzo[e][1,2,4]thiadiazine 1,1-dioxide dioxide], in experiment [1], the “% Inhibition CII (100 μM)” value came to 45 ±5.6%. The IC50 worked out at 12.5 ± 0.3 µM in experiment [3] and 43.1 ± 3.2 µM in experiment [4] (72 hours, mean ±SD of n=3).
For `CC(C)C(C)NC1=NS(=O)(=O)c2cc(Br)ccc2N1` (centres unmarked) [Compound 15c, 7-Bromo-3-((3-methylbutan-2-yl)amino)-4Hbenzo[e][1,2,4]thiadiazine 1,1-dioxide], the inhibition at 100 µM in experiment [1] was determined as 19 ± 10.4%. Moreover, in experiment [3], the “SI (Selectivity Index)” value amounted to 1.75. The IC50 in experiment [4] (Homo sapiens, HEK293, 72 h) came to 35.7 ± 1.6 µM.
In the case of `C=CCNC1=NS(=O)(=O)c2cc(F)ccc2N1` [Compound 32a, 3-(Allylamino)-7-fluoro-4H-benzo[e][1,2,4]thiadiazine 1,1-dioxide], the inhibition at 100 µM in experiment [1] came out at 38 ± 7.8%. In experiment [2], the “reduction of 22Rv1 cell viability” value was 24%.
Turning to `O=S1(=O)N=C(NCCc2c[nH]c3ccccc23)Nc2ccc(F)cc21` [Compound 36a, 3-((2-(1H-indol-3-yl)ethyl)amino)-7-fluoro-4H-benzo[e][1,2,4]thiadiazine 1,1-dioxide], in experiment [1], the inhibition at 100 µM was found to be 17 ± 8.2%. Further, in experiment [2], the “reduction of 22Rv1 cell viability” value was 30%.
In the case of `COc1ccccc1CNC1=NS(=O)(=O)c2cc(Br)ccc2N1` [Compound 26c, 7-Bromo-3-((2-methoxybenzyl)amino)-4H-benzo[e][1,2,4]thiadiazine 1,1-dioxide], the inhibition at 100 µM in experiment [1] stood at 44 ± 12.3%. In experiment [3], the “SI (Selectivity Index)” value is on record as 4. In addition, the IC50 in experiment [4] (Homo sapiens, HEK293, 72 h) was determined as 54.4 ± 4.2 µM.
In the case of `O=S1(=O)N=C(NCCc2ccc(F)cc2)Nc2ccc(Br)cc21` [Compound 33c, 7-Bromo-3-((4-fluorophenethyl)amino)-4H-benzo[e][1,2,4]thiadiazine 1,1-dioxide], the inhibition at 100 µM in experiment [1] worked out at 45 ± 17.1%. The “SI (Selectivity Index)” value in experiment [3] is listed as 2.42. Also, the IC50 in experiment [4] (Homo sapiens, HEK293, 72 h) was determined as 48.7 ± 12 µM.
Turning to `O=S1(=O)N=C(NCc2ccc(C(F)(F)F)cc2)Nc2ccc(Br)cc21` [Compound 25c, 7-Bromo-3-((4-(trifluoromethyl)benzyl)amino)-4H-benzo[e][1,2,4]thiadiazine 1,1-dioxide], the “reduction of 22Rv1 cell viability” value in experiment [2] came to 34%. For the same molecule, in experiment [4] (Homo sapiens, HEK293, 72 h), the IC50 turned out to be 57.5 ± 4.7 µM.
With `O=S1(=O)N=C(NCc2ccc(OC(F)(F)F)cc2)Nc2ccccc21` [Compound 30d, 3-((4-(Trifluoromethoxy)benzyl)amino)-4H-benzo[e][1,2,4]thiadiazine 1,1-dioxide], the inhibition at 100 µM in experiment [1] was determined as 7 ± 6.2%. In experiment [2], the “reduction of 22Rv1 cell viability” value is reported as “approximately 30%”.
As for `CC(C)NC1=NS(=O)(=O)c2cc(Br)ccc2N1` [Compound 14c, 7-Bromo-3-isopropylamino-4H-1,2,4-benzothiadiazine 1,1-dioxide], the inhibition at 100 µM in experiment [1] stood at 0%.
As for `CCNC1=NS(=O)(=O)c2cc(Br)ccc2N1` [Compound 19c, 7-Bromo-3-(ethylamino)-4H-benzo[e][1,2,4]thiadiazine 1,1-dioxide], the inhibition at 100 µM in experiment [1] is 11 ± 6.9%.
`O=S1(=O)N=C(NCc2ccc(OC(F)(F)F)cc2)Nc2ccc(F)cc21` [Compound 30a, 7-Fluoro-3-((4-(trifluoromethoxy)benzyl)amino)-4H-benzo[e][1,2,4] thiadiazine 1,1-dioxide]: the inhibition at 100 µM in experiment [1] was 2 ± 6.9%.
Same read-out and setting: the result for `COc1ccc(CCNC2=NS(=O)(=O)c3cc(Br)ccc3N2)cc1` [Compound 34c, 7-Bromo-3-((4-methoxyphenethyl)amino)-4H-benzo[e][1,2,4]thiadiazine 1,1-dioxide] reads 17 ± 3.3%.
Same read-out and setting: the result for `Cc1ccc(CNC2=NS(=O)(=O)c3cc(Br)ccc3N2)cc1` [Compound 27c, 7-Bromo-3-((4-methylbenzyl)amino)-4H-benzo[e][1,2,4]thiadiazine 1,1-dioxide] reads 29 ± 6.2%; that for `CSC1=NS(=O)(=O)c2cc(F)ccc2N1` [Compound 13a, 7-Fluoro-3-methylsulfanyl-4H-1,2,4-benzothiadiazine 1,1-dioxide], 0%.
As to `COc1ccc(CCNC2=NS(=O)(=O)c3cc(F)ccc3N2)cc1` [Compound 39a, 7-Fluoro-3-((4-methoxyphenethyl)amino)-4H-benzo[e][1,2,4]thiadiazine 1,1-dioxide], in experiment [1], the inhibition at 100 µM came out at 18 ± 6.2%. The “SI (Selectivity Index)” value in experiment [3] turned out to be 3.27. The IC50 in experiment [4] (Homo sapiens, HEK293, 72 h) came to 123 ± 21.4 µM.
For the molecule `O=S1(=O)NC(=S)Nc2ccc(Br)cc21` [Compound 12c, 7-Bromo-3-thioxo-3,4-dihydro-2H-1,2,4-benzothiadiazine 1,1-dioxide], in experiment [1], the 50% inhibitory concentration (IC50) is 37 ± 2.4 µM and the inhibition at 100 µM came out at 55 ± 15.2%. Besides, in experiment [2], the “reduction of 22Rv1 cell viability” value came to 16%.
As to `O=S1(=O)N=C(NCc2ccc(F)cc2)Nc2ccc(F)cc21` [Compound 17a, 7-Fluoro-3-((4-fluorobenzyl)amino)-4H-benzo[e][1,2,4]thiadiazine 1,1-dioxide], the inhibition at 100 µM in experiment [1] worked out at 1 ± 6.2%.
Still for that read-out and setting: in the case of `Cc1ccc(CNC2=NS(=O)(=O)c3cc(F)ccc3N2)cc1` [Compound 27a, 7-Fluoro-3-((4-methylbenzyl)amino)-4H-benzo[e][1,2,4]thiadiazine 1,1-dioxide] it was 23 ± 9.9%.
